Data from the supplement of paper PMC11208160.

Test: recombinant UMI read abundance after kanamycin selection (control-corrected) (log10(CPM+1)); higher = more efficient recombination; extreme values may be limits of the assay; sequences stand for … in AGTGCAGAGAAAATCGGCCAGTTTTCTCTGCCTGCAGTCCGCATGCCGTGGGACCCCTTGGGTTCTAACCTGTTGCCTAGATTTATGCAGCGGACTGCCTTTCTCCCAAAGTGATAAACCGG…AGGTTGGTTTCACT; site = the 11-nt donor
How it was run: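 For the IS621 bridge recombinase, a pooled Escherichia coli screen tested donor and donor-binding-loop pairs. Cells received the pair library together with a target plasmid encoding a fixed target and T7-inducible recombinase, then went onto IPTG (0.07 mM) plus kanamycin or unselected plates in duplicate. After PCR across the donor–target junction and sequencing, recombinant UMI counts were normalized to CPM, averaged, and scaled by control-derived factors. Each value is given as log10(CPM+1).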
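Note: IS621 bridge recombinase in Escherichia coli cells against a fixed T5 target plasmid.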

CTCCTACCATGGACCGGTTTTCCCGGTAATCCGTATTTGCT (site CTACTACCTAG)
recombinant UMI read abundance (log10): 0

CTCCTACCATGGACCGGTTTTCCCGGTAATCCGTATTTGCT (site CTCCTACCTAG)
recombinant UMI read abundance (log10): 0

CTCCTACCATGGACCGGTTTTCCCGGTAATCCGTATTTGCT (site CTGCTACCTAG)
recombinant UMI read abundance (log10): 0.00362

CTCCTACCATGGACCGGTTTTCCCGGTAATCCGTATTTGCT (site CTTCTACCTAG)
recombinant UMI read abundance (log10): 0

CTCGAAACATGGACCGGTTTTCCCGGTAATCCGTATTTGTG (site CTCGAAACTCA)
recombinant UMI read abundance (log10): 1.06

CTCGAATCATGGACCGGTTTTCCCGGTAATCCGTATTTGCA (site CTCGAATCTTG)
recombinant UMI read abundance (log10): 2.42

CTCGACACATGGACCGGTTTTCCCGGTAATCCGTATTTGGC (site CTCGACACTGC)
recombinant UMI read abundance (log10): 1.04

CTCGCAACATGGACCGGTTTTCCCGGTAATCCGTATTTGTT (site CTCGCAACTAA)
recombinant UMI read abundance (log10): 1.96

CTCGGAGCATGGACCGGTTTTCCCGGTAATCCGTATTTGAC (site CTCGGAGCTGT)
recombinant UMI read abundance (log10): 2.63

CTCGTAACATGGACCGGTTTTCCCGGTAATCCGTATTTGAT (site CTCGTAACTAT)
recombinant UMI read abundance (log10): 2.31

CTCGTATCATGGACCGGTTTTCCCGGTAATCCGTATTTGAG (site CTAGTATCTGT)
recombinant UMI read abundance (log10): 0

CTCGTATCATGGACCGGTTTTCCCGGTAATCCGTATTTGAG (site CTCGTATCTCT)
recombinant UMI read abundance (log10): 1.9

CTCTAAGCATGGACCGGTTTTCCCGGTAATCCGTATTTGTC (site CTCTAAGCTGA)
recombinant UMI read abundance (log10): 1.81

CTCTACACATGGACCGGTTTTCCCGGTAATCCGTATTTGAT (site CTCTACACTAA)
recombinant UMI read abundance (log10): 0.0183

CTCTACACATGGACCGGTTTTCCCGGTAATCCGTATTTGAT (site CTCTACACTAC)
recombinant UMI read abundance (log10): 0.0649

CTCTACACATGGACCGGTTTTCCCGGTAATCCGTATTTGAT (site CTCTACACTAG)
recombinant UMI read abundance (log10): 0.00358

CTCTACACATGGACCGGTTTTCCCGGTAATCCGTATTTGAT (site CTCTACACTAT)
recombinant UMI read abundance (log10): 2.19

CTCTACACATGGACCGGTTTTCCCGGTAATCCGTATTTGCC (site CTCTACACTAG)
recombinant UMI read abundance (log10): 0.72

CTCTACACATGGACCGGTTTTCCCGGTAATCCGTATTTGCC (site CTCTACACTCG)
recombinant UMI read abundance (log10): 0.0134

CTCTACACATGGACCGGTTTTCCCGGTAATCCGTATTTGCC (site CTCTACACTGG)
recombinant UMI read abundance (log10): 2.37

CTCTACACATGGACCGGTTTTCCCGGTAATCCGTATTTGCC (site CTCTACACTTG)
recombinant UMI read abundance (log10): 2.13

CTCTACCCATGGACCGGTTTTCCCGGTAATCCGTATTTGCT (site CTCTACACTAG)
recombinant UMI read abundance (log10): 0.274

CTCTACCCATGGACCGGTTTTCCCGGTAATCCGTATTTGCT (site CTCTACCCTAG)
recombinant UMI read abundance (log10): 1.74

CTCTACCCATGGACCGGTTTTCCCGGTAATCCGTATTTGCT (site CTCTACGCTAG)
recombinant UMI read abundance (log10): 0.00357

CTCTACCCATGGACCGGTTTTCCCGGTAATCCGTATTTGCT (site CTCTACTCTAG)
recombinant UMI read abundance (log10): 2.87

CTCTAGACATGGACCGGTTTTCCCGGTAATCCGTATTTGCT (site CTCTAAACTAG)
recombinant UMI read abundance (log10): 0.681

CTCTAGACATGGACCGGTTTTCCCGGTAATCCGTATTTGCT (site CTCTACACTAG)
recombinant UMI read abundance (log10): 0.119

CTCTAGACATGGACCGGTTTTCCCGGTAATCCGTATTTGCT (site CTCTAGACTAG)
recombinant UMI read abundance (log10): 0.576

CTCTAGACATGGACCGGTTTTCCCGGTAATCCGTATTTGCT (site CTCTATACTAG)
recombinant UMI read abundance (log10): 0

CTCTCCACATGGACCGGTTTTCCCGGTAATCCGTATTTGCT (site CTCTACACTAG)
recombinant UMI read abundance (log10): 0.902

CTCTCCACATGGACCGGTTTTCCCGGTAATCCGTATTTGCT (site CTCTCCACTAG)
recombinant UMI read abundance (log10): 2.34

CTCTCCACATGGACCGGTTTTCCCGGTAATCCGTATTTGCT (site CTCTGCACTAG)
recombinant UMI read abundance (log10): 0

CTCTCCACATGGACCGGTTTTCCCGGTAATCCGTATTTGCT (site CTCTTCACTAG)
recombinant UMI read abundance (log10): 0.534

CTCTGCACATGGACCGGTTTTCCCGGTAATCCGTATTTGCT (site CTCTACACTAG)
recombinant UMI read abundance (log10): 0.861

CTCTGCACATGGACCGGTTTTCCCGGTAATCCGTATTTGCT (site CTCTCCACTAG)
recombinant UMI read abundance (log10): 0.00325

CTCTGCACATGGACCGGTTTTCCCGGTAATCCGTATTTGCT (site CTCTGCACTAG)
recombinant UMI read abundance (log10): 2.1

CTCTGCACATGGACCGGTTTTCCCGGTAATCCGTATTTGCT (site CTCTTCACTAG)
recombinant UMI read abundance (log10): 0.00616

CTCTTCTCATGGACCGGTTTTCCCGGTAATCCGTATTTGTA (site CTCTTCTCTTA)
recombinant UMI read abundance (log10): 2.1

CTGACTCCATGGACCGGTTTTCCCGGTAATCCGTATTTGGG (site CTGACTCCTCC)
recombinant UMI read abundance (log10): 0.44

CTGCAAACATGGACCGGTTTTCCCGGTAATCCGTATTTGCA (site CTGAAAACTTG)
recombinant UMI read abundance (log10): 0

CTGCAAACATGGACCGGTTTTCCCGGTAATCCGTATTTGCA (site CTGCAAACTTG)
recombinant UMI read abundance (log10): 0.915

CTGCAAACATGGACCGGTTTTCCCGGTAATCCGTATTTGCA (site CTGGAAACTTG)
recombinant UMI read abundance (log10): 0

CTGCAAACATGGACCGGTTTTCCCGGTAATCCGTATTTGCA (site CTGTAAACTTG)
recombinant UMI read abundance (log10): 0

CTGCACCCATGGACCGGTTTTCCCGGTAATCCGTATTTGGC (site CTGCACCCTGC)
recombinant UMI read abundance (log10): 0.469

CTGCAGGCATGGACCGGTTTTCCCGGTAATCCGTATTTGAG (site CTGCAGGCTCT)
recombinant UMI read abundance (log10): 1.5

CTGCATGCATGGACCGGTTTTCCCGGTAATCCGTATTTGGT (site ATGCATGCTAC)
recombinant UMI read abundance (log10): 0.0144

CTGCATGCATGGACCGGTTTTCCCGGTAATCCGTATTTGGT (site CTGCATGCTAC)
recombinant UMI read abundance (log10): 1.57

CTGCATGCATGGACCGGTTTTCCCGGTAATCCGTATTTGGT (site GTGCATGCTAC)
recombinant UMI read abundance (log10): 0.0408

CTGCATGCATGGACCGGTTTTCCCGGTAATCCGTATTTGGT (site TTGCATGCTAC)
recombinant UMI read abundance (log10): 0.0633

CTGCCAACATGGACCGGTTTTCCCGGTAATCCGTATTTGAA (site CTGCCAACTTT)
recombinant UMI read abundance (log10): 0.912

CTGCCGGCATGGACCGGTTTTCCCGGTAATCCGTATTTGCA (site CTGCCGGCTTG)
recombinant UMI read abundance (log10): 2.01

CTGCCTACATGGACCGGTTTTCCCGGTAATCCGTATTTGAG (site CTACCTACTCT)
recombinant UMI read abundance (log10): 1.04

CTGCCTACATGGACCGGTTTTCCCGGTAATCCGTATTTGAG (site CTCCCTACTCT)
recombinant UMI read abundance (log10): 0.00401

CTGCCTACATGGACCGGTTTTCCCGGTAATCCGTATTTGAG (site CTGCCTACTCT)
recombinant UMI read abundance (log10): 1.03

CTGCCTACATGGACCGGTTTTCCCGGTAATCCGTATTTGAG (site CTTCCTACTCT)
recombinant UMI read abundance (log10): 0.12

CTGCGAACATGGACCGGTTTTCCCGGTAATCCGTATTTGCA (site CTGCGAACTTG)
recombinant UMI read abundance (log10): 1.38

CTGCGGTCATGGACCGGTTTTCCCGGTAATCCGTATTTGTC (site CTGCGGTCTGA)
recombinant UMI read abundance (log10): 2.1

CTGCGTGCATGGACCGGTTTTCCCGGTAATCCGTATTTGGT (site CTGCGTGCTAC)
recombinant UMI read abundance (log10): 1.37

CTGCTACCATGGACCGGTTTTCCCGGTAATCCGTATTTGCG (site CTGCTACCTAG)
recombinant UMI read abundance (log10): 0

CTGCTACCATGGACCGGTTTTCCCGGTAATCCGTATTTGCG (site CTGCTACCTCG)
recombinant UMI read abundance (log10): 0.309

CTGCTACCATGGACCGGTTTTCCCGGTAATCCGTATTTGCG (site CTGCTACCTGG)
recombinant UMI read abundance (log10): 0

CTGCTACCATGGACCGGTTTTCCCGGTAATCCGTATTTGCG (site CTGCTACCTTG)
recombinant UMI read abundance (log10): 0

CTGCTACCATGGACCGGTTTTCCCGGTAATCCGTATTTGTT (site CTGCTACCTAA)
recombinant UMI read abundance (log10): 0.0134

CTGCTACCATGGACCGGTTTTCCCGGTAATCCGTATTTGTT (site CTGCTACCTAC)
recombinant UMI read abundance (log10): 0.0167

CTGCTACCATGGACCGGTTTTCCCGGTAATCCGTATTTGTT (site CTGCTACCTAG)
recombinant UMI read abundance (log10): 0

CTGCTACCATGGACCGGTTTTCCCGGTAATCCGTATTTGTT (site CTGCTACCTAT)
recombinant UMI read abundance (log10): 0.011

CTGCTAGCATGGACCGGTTTTCCCGGTAATCCGTATTTGCT (site CTGCTAACTAG)
recombinant UMI read abundance (log10): 0

CTGCTAGCATGGACCGGTTTTCCCGGTAATCCGTATTTGCT (site CTGCTACCTAG)
recombinant UMI read abundance (log10): 0

CTGCTAGCATGGACCGGTTTTCCCGGTAATCCGTATTTGCT (site CTGCTAGCTAG)
recombinant UMI read abundance (log10): 0

CTGCTAGCATGGACCGGTTTTCCCGGTAATCCGTATTTGCT (site CTGCTATCTAG)
recombinant UMI read abundance (log10): 0

CTGCTATCATGGACCGGTTTTCCCGGTAATCCGTATTTGCT (site CTGCTAACTAG)
recombinant UMI read abundance (log10): 0.708

CTGCTATCATGGACCGGTTTTCCCGGTAATCCGTATTTGCT (site CTGCTACCTAG)
recombinant UMI read abundance (log10): 0

CTGCTATCATGGACCGGTTTTCCCGGTAATCCGTATTTGCT (site CTGCTAGCTAG)
recombinant UMI read abundance (log10): 0.0179

CTGCTATCATGGACCGGTTTTCCCGGTAATCCGTATTTGCT (site CTGCTATCTAG)
recombinant UMI read abundance (log10): 2.33

CTGCTGCCATGGACCGGTTTTCCCGGTAATCCGTATTTGCT (site CTGCTACCTAG)
recombinant UMI read abundance (log10): 0.00624
